Molecular target: human APJ receptor (Homo sapiens (Human), UniProt P35414)
Assay: [35S]GTPγS binding assay on membranes from CHO cells stably expressing human APJ receptor
Type: biochemical
Settings: means of several independent experiments, read-out: Activity hAPJ SPA EC50 IP
Method: The human APJ receptor was cloned by polymerase chain reaction and the gene encoding the receptor was subcloned in pFLAG-CMV™-3 expression vector (Sigma, Saint Louis, Mo. USA) in-house at Amgen. A GTPγS binding assay was performed on membranes prepared from CHO cells stably expressing human APJ receptor. The optimum experimental conditions for the concentrations of GDP, MgCl2, and NaCl in the assay buffer were initially determined. […] Incubation was at RT for 90 min and the microplate was read using a ViewLux™ ultra HTS Microplate Imager (PerkinElmer, Inc.). All the results presented are means of several independent experiments and analyzed by non-linear regression methods using the commercially available program Prism (GraphPad, San Diego, Calif.) providing the EC50 values detailed in Table 28.

Chain of human APJ receptor (P35414 whole entry): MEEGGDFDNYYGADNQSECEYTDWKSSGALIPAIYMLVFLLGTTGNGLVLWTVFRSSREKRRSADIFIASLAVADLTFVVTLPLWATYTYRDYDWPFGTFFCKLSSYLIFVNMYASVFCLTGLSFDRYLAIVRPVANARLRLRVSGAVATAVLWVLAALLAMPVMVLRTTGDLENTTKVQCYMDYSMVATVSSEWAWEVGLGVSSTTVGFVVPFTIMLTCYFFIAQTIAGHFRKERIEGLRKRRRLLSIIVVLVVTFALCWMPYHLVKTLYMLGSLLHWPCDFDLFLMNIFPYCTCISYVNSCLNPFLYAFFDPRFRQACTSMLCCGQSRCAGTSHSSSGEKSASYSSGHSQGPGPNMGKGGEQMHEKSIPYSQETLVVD

COc1cccc(OC)c1-n1c(NS(=O)(=O)[C@H]2C[C@@H](O)CN(c3ncc(F)cn3)C2)nnc1-c1ccccc1 (mixture of isomers) [Example 53.0, (3R,5S)-N-(4-(2,6-dimethoxyphenyl)-5-phenyl-4H-1,2,4-triazol-3-yl)-1-(5-fluoro-2-pyrimidinyl)-5-hydroxy-3-piperidinesulfonamide and (3S,5R)-N-(4-(2,6-dimethoxyphenyl)-5-phenyl-4H-1,2,4-triazol-3-yl)-1-(5-fluoro-2-pyrimidinyl)-5-hydroxy-3-piperidinesulfonamide]
EC50: 4.9 nM

COc1cccc(OC)c1-n1c(NS(=O)(=O)[C@@H](C)[C@H](OC)c2ncc(C)cn2)nnc1-c1cccc([C@](C)(O)C(F)(F)F)c1 (mixture of isomers) [Example 88.0, (1R,2S)—N-(4-(2,6-Dimethoxyphenyl)-5-(3-((1S)-2,2,2-trifluoro-1-hydroxy-1-methylethyl)phenyl)-4H-1,2,4-triazol-3-yl)-1-methoxy-1-(5-methyl-2-pyrimidinyl)-2-propanesulfonamide and (1R,2S)—N-(4-(2,6-dimethoxyphenyl)-5-(3-((1R)-2,2,2-trifluoro-1-hydroxy-1-methylethyl)phenyl)-4H-1,2,4-triazol-3-yl)-1-methoxy-1-(5-methyl-2-pyrimidinyl)-2-propanesulfonamide]
EC50: 23 nM

COc1cccc(OC)c1-n1c(NS(=O)(=O)[C@@H](C)Cc2ncc(F)cn2)nnc1-c1ccccc1 (single isomer, unassigned) [Example 8.0, (2S)-N-(4-(2,6-dimethoxyphenyl)-5-phenyl-4H-1,2,4-triazol-3-yl)-1-(5-fluoro-2-pyrimidinyl)-2-propanesulfonamide or (2R)-N-(4-(2,6-dimethoxyphenyl)-5-phenyl-4H-1,2,4-triazol-3-yl)-1-(5-fluoro-2-pyrimidinyl)-2-propanesulfonamide]
EC50: 15 nM

COc1ncnc(OC)c1-n1c(NS(=O)(=O)[C@@H](C)Cc2ncc(F)cn2)nnc1-c1ccccc1 (single isomer, unassigned) [Example 9.0, (2S)-N-(4-(4,6-dimethoxy-5-pyrimidinyl)-5-phenyl-4H-1,2,4-triazol-3-yl)-1-(5-fluoro-2-pyrimidinyl)-2-propanesulfonamide or (2R)-N-(4-(4,6-dimethoxy-5-pyrimidinyl)-5-phenyl-4H-1,2,4-triazol-3-yl)-1-(5-fluoro-2-pyrimidinyl)-2-propanesulfonamide]
EC50: 40 nM

COc1ncnc(OC)c1-n1c(NS(=O)(=O)[C@@H](C)Cc2ncc(F)cn2)nnc1-c1ccccc1 (single isomer, unassigned) [Example 11.0, (2S)-N-(4-(4,6-dimethoxy-5-pyrimidinyl)-5-phenyl-4H-1,2,4-triazol-3-yl)-1-(5-fluoro-2-pyrimidinyl)-2-propanesulfonamide or (2R)-N-(4-(4,6-dimethoxy-5-pyrimidinyl)-5-phenyl-4H-1,2,4-triazol-3-yl)-1-(5-fluoro-2-pyrimidinyl)-2-propanesulfonamide]
EC50: 6.4 nM

COc1cccc(OC)c1-n1c(NS(=O)(=O)[C@H]2CCCN(c3ncc(F)cn3)C2)nnc1-c1ccccc1 (single isomer, unassigned) [Example 21.0, (3S)—N-(4-(2,6-Dimethoxyphenyl)-5-phenyl-4H-1,2,4-triazol-3-yl)-1-(5-fluoro-2-pyrimidinyl)-3-piperidinesulfonamide or (3R)—N-(4-(2,6-dimethoxyphenyl)-5-phenyl-4H-1,2,4-triazol-3-yl)-1-(5-fluoro-2-pyrimidinyl)-3-piperidinesulfonamide]
EC50: 7.3 nM

COc1cccc(OC)c1-n1c(NS(=O)(=O)[C@H]2CCCN(c3ncc(F)cn3)C2)nnc1-c1ccccc1 (single isomer, unassigned) [Example 22.0, (3S)—N-(4-(2,6-dimethoxyphenyl)-5-phenyl-4H-1,2,4-triazol-3-yl)-1-(5-fluoro-2-pyrimidinyl)-3-piperidinesulfonamide or (3R)—N-(4-(2,6-dimethoxyphenyl)-5-phenyl-4H-1,2,4-triazol-3-yl)-1-(5-fluoro-2-pyrimidinyl)-3-piperidinesulfonamide]
EC50: 170 nM

COc1ccnc(OC)c1-n1c(NS(=O)(=O)[C@@H](C)[C@H](OC)c2ncc(C)cn2)nnc1-c1ccccc1 (single isomer, unassigned) [Example 23.0, (1R,2S,P)-N-(4-(2,4-dimethoxy-3-pyridinyl)-5-phenyl-4H-1,2,4-triazol-3-yl)-1-methoxy-1-(5-methyl-2-pyrimidinyl)-2-propanesulfonamide or (1R,2S,M)-N-(4-(2,4-dimethoxy-3-pyridinyl)-5-phenyl-4H-1,2,4-triazol-3-yl)-1-methoxy-1-(5-methyl-2-pyrimidinyl)-2-propanesulfonamide]
EC50: 5.9 nM

COc1ccnc(OC)c1-n1c(NS(=O)(=O)[C@@H](C)[C@H](OC)c2ncc(C)cn2)nnc1-c1ccccc1 (single isomer, unassigned) [Example 24.0, (1R,2S,P)-N-(4-(2,4-dimethoxy-3-pyridinyl)-5-phenyl-4H-1,2,4-triazol-3-yl)-1-methoxy-1-(5-methyl-2-pyrimidinyl)-2-propanesulfonamide or (1R,2S,M)-N-(4-(2,4-dimethoxy-3-pyridinyl)-5-phenyl-4H-1,2,4-triazol-3-yl)-1-methoxy-1-(5-methyl-2-pyrimidinyl)-2-propanesulfonamide]
EC50: 0.27 nM

COc1ncnc(OC)c1-n1c(NS(=O)(=O)[C@H]2CCCN(c3ncc(F)cn3)C2)nnc1-c1ccccc1 (single isomer, unassigned) [Example 27.0, (3S)-N-(4-(4,6-dimethoxy-5-pyrimidinyl)-5-phenyl-4H-1,2,4-triazol-3-yl)-1-(5-fluoro-2-pyrimidinyl)-3-piperidinesulfonamide or (3R)-N-(4-(4,6-dimethoxy-5-pyrimidinyl)-5-phenyl-4H-1,2,4-triazol-3-yl)-1-(5-fluoro-2-pyrimidinyl)-3-piperidinesulfonamide]
EC50: 32 nM

COc1ncnc(OC)c1-n1c(NS(=O)(=O)[C@H]2CCCN(c3ncc(F)cn3)C2)nnc1-c1ccccc1 (single isomer, unassigned) [Example 28.0, (3S)-N-(4-(4,6-dimethoxy-5-pyrimidinyl)-5-phenyl-4H-1,2,4-triazol-3-yl)-1-(5-fluoro-2-pyrimidinyl)-3-piperidinesulfonamide or (3R)-N-(4-(4,6-dimethoxy-5-pyrimidinyl)-5-phenyl-4H-1,2,4-triazol-3-yl)-1-(5-fluoro-2-pyrimidinyl)-3-piperidinesulfonamide]
EC50: 410 nM

COc1ncnc(OC)c1-n1c(NS(=O)(=O)[C@H]2CCCN(c3ncc(C)cn3)C2)nnc1-c1ccccc1 (single isomer, unassigned) [Example 29.0, (S)—N-(4-(4,6-Dimethoxypyrimidin-5-yl)-5-phenyl-4H-1,2,4-triazol-3-yl)-1-(5-methylpyrimidin-2-yl)piperidine-3-sulfonamide or (R)—N-(4-(4,6-dimethoxypyrimidin-5-yl)-5-phenyl-4H-1,2,4-triazol-3-yl)-1-(5-methylpyrimidin-2-yl)piperidine-3-sulfonamide]
EC50: 390 nM

COc1ncnc(OC)c1-n1c(NS(=O)(=O)[C@H]2CCCN(c3ncc(C)cn3)C2)nnc1-c1ccccc1 (single isomer, unassigned) [Example 30.0, (S)—N-(4-(4,6-Dimethoxypyrimidin-5-yl)-5-phenyl-4H-1,2,4-triazol-3-yl)-1-(5-methylpyrimidin-2-yl)piperidine-3-sulfonamide or (R)—N-(4-(4,6-dimethoxypyrimidin-5-yl)-5-phenyl-4H-1,2,4-triazol-3-yl)-1-(5-methylpyrimidin-2-yl)piperidine-3-sulfonamide]
EC50: 100 nM

COc1ncnc(OC)c1-n1c(NS(=O)(=O)[C@H]2CCCN(c3ncc(Cl)cn3)C2)nnc1-c1ccccc1 (single isomer, unassigned) [Example 31.0, (3S)-1-(5-chloro-2-pyrimidinyl)-N-(4-(4,6-dimethoxy-5-pyrimidinyl)-5-phenyl-4H-1,2,4-triazol-3-yl)-3-piperidinesulfonamide or (3R)-1-(5-chloro-2-pyrimidinyl)-N-(4-(4,6-dimethoxy-5-pyrimidinyl)-5-phenyl-4H-1,2,4-triazol-3-yl)-3-piperidinesulfonamide]
EC50: 340 nM

COc1ncnc(OC)c1-n1c(NS(=O)(=O)[C@H]2CCCN(c3ncc(Cl)cn3)C2)nnc1-c1ccccc1 (single isomer, unassigned) [Example 32.0, (3S)-1-(5-chloro-2-pyrimidinyl)-N-(4-(4,6-dimethoxy-5-pyrimidinyl)-5-phenyl-4H-1,2,4-triazol-3-yl)-3-piperidinesulfonamide or (3R)-1-(5-chloro-2-pyrimidinyl)-N-(4-(4,6-dimethoxy-5-pyrimidinyl)-5-phenyl-4H-1,2,4-triazol-3-yl)-3-piperidinesulfonamide]
EC50: 17 nM

COc1cccc(OC)c1-n1c(NS(=O)(=O)[C@H]2CCCN(c3ncc(Cl)cn3)C2)nnc1-c1ccccc1 (single isomer, unassigned) [Example 34.0, (S)-1-(5-Chloropyrimidin-2-yl)-N-(4-(2,6-dimethoxyphenyl)-5-phenyl-4H-1,2,4-triazol-3-yl)piperidine-3-sulfonamide or (R)-1-(5-chloropyrimidin-2-yl)-N-(4-(2,6-dimethoxyphenyl)-5-phenyl-4H-1,2,4-triazol-3-yl)piperidine-3-sulfonamide]
EC50: 28 nM

COc1cccc(OC)c1-n1c(NS(=O)(=O)[C@H]2CCCN(c3ncc(Cl)cn3)C2)nnc1-c1ccccc1 (single isomer, unassigned) [Example 35.0, (S)-1-(5-Chloropyrimidin-2-yl)-N-(4-(2,6-dimethoxyphenyl)-5-phenyl-4H-1,2,4-triazol-3-yl)piperidine-3-sulfonamide or (R)-1-(5-chloropyrimidin-2-yl)-N-(4-(2,6-dimethoxyphenyl)-5-phenyl-4H-1,2,4-triazol-3-yl)piperidine-3-sulfonamide]
EC50: 280 nM

— US10906890B2, “Triazole phenyl compounds as agonists of the APJ receptor” (AMGEN INC., priority 2016, dated 2021)
